Molecules are shown by their SMILES.

`CCCc1ccc(O)cc1` [4-propylphenol]: the flash point was 106 °C.
Regarding `CCC(C)c1ccc(N)cc1` (configuration not stated) [4-sec-butylaniline], the flash point is 108 °C.
To `CC(C)(C)c1ccc(N)cc1` [4-tert-butylaniline] belongs 102 °C.
`CCCC#CCCCCCC` [4-undecyne] gave a flash point of 66 °C.
Under `C=CC1CC=CCC1` (configuration not stated) [4-vinyl-1-cyclohexene] stands 16 °C.
For the compound `CC=C1CC2C=CC1C2` (configuration not stated) [5-ethylidene-2-norbornene], the flash point is 29 °C.
Take `C=CCCCCO` [5-hexen-1-ol]: the flash point was 47 °C.
Under `C#CCCC(C)C` [5-methyl-1-hexyne] stands -7 °C; under `CC(=O)CCC(C)C` [5-methyl-2-hexanone], 36 °C; under `CC1CCCC(=O)CCC1` [5-methylcyclooctanone], 71 °C.
`CCCCC#CCCCCC` [5-undecyne] registered a flash point of 66 °C.
Consider `CCC#CCCCCCCCl` [10-chloro-3-decyne], for which the flash point turned out to be 86 °C.
For `NCC1CCCCC1` [(aminomethyl)cyclohexane], the flash point came out at 43 °C.
To `CCN(CC)C(C)=O` [N,N-diethylacetamide] belongs 76 °C; to `CN(C)C=O` [N,N-dimethylformamide], 57 °C.
Compound `CCN(C)C` [N-ethyldimethylamine] returned a flash point of -36 °C.
The compound `CCNC=O` [N-ethylformamide] returned a flash point of 86 °C.
`CCCCNC` [N-methylbutylamine] showed a flash point of 2 °C.
Regarding `CNC(C)C` [N-methylisopropylamine], the flash point is -20 °C.
`CN1CCOCC1` [N-methylmorpholine] registered a flash point of 14 °C.
For `CCC(C)Nc1ccccc1` (configuration not stated) [N-sec-butylaniline], the flash point amounted to 93 °C.
`C=CN(C)C(C)=O` [N-vinyl-N-methylacetamide] had a flash point of 63 °C.
`CC(=O)O` [aceticacid] came in with a flash point of 40 °C.
On to `CC(C)=O` [acetone], for which the flash point is -20 °C.
Take `CC#N` [acetonitrile]: the flash point was 2 °C.
The compound `CC(=O)c1ccccc1` [acetophenone] registered a flash point of 77 °C.
`C=CCN` [allylamine] showed a flash point of -28 °C.
`C=CCOC(=O)CCC` [allylbutanoate] displayed a flash point of 42 °C.
To `C=CCOc1ccccc1` [allylphenylether] belongs 63 °C; to `C=CCSCCC` [allylpropylsulfide], 29 °C.
Consider `Nc1ccccc1` [aniline], for which the flash point worked out at 70 °C.
`O=Cc1ccccc1` [benzaldehyde] showed a flash point of 62 °C.
`Sc1ccccc1` [benzenethiol] returned a flash point of 51 °C.
On to `N#Cc1ccccc1` [benzonitrile], for which the flash point is 70 °C.
In the case of `NCc1ccccc1` [benzylamine], the flash point came to 65 °C.
Turning to `ClCc1ccccc1` [benzylchloride], the flash point stood at 60 °C.
Consider `COCc1ccccc1` [benzylmethylether], for which the flash point is 53 °C.
To `CSCc1ccccc1` [benzylmethylsulfide] belongs 73 °C; to `CCC(=O)OCc1ccccc1` [benzylpropanoate], 96 °C; to `COCCNCCOC` [bis(2-methoxyethyl)amine], 58 °C.
Take `Brc1ccccc1` [bromobenzene]: the flash point is 51 °C.
The compound `BrC1CCCCC1` [bromocyclohexane] yielded a flash point of 62 °C.
Under `CCBr` [bromoethane] stands -20 °C.
Consider `CCCC=O` [butanal], for which the flash point is -7 °C.
Under `CCCC(=O)O` [butanoicacid] stands 69 °C; under `CCCCOC(C)=O` [butylacetate], 25 °C; under `CCCCC1CCCC1` [butylcyclopentane], 32 °C.
Under `CCCCOC=O` [butylformate] stands 18 °C.
As for `CCCCOC` [butylmethylether], the flash point is -10 °C.
To `CCCCOC(=O)CC` [butylpropanoate] belongs 38 °C; to `CCCC#N` [butyronitrile], 18 °C; to `Clc1ccccc1` [chlorobenzene], 28 °C.
Under `ClC1CCCC1` [chlorocyclopentane] stands 15 °C; under `C[C@H]1CC[C@@H](C)CC1` [cis-1,4-dimethylcyclohexane], 6 °C; under `C/C=C\CCCC` [cis-2-heptene], -6 °C.
Under `C/C=C\CCC` [cis-2-hexene] stands -25 °C; under `CC/C=C\CCC` [cis-3-heptene], -9 °C.
Turning to `CCC/C=C\CCC` [cis-4-octene], the flash point came out at 17 °C.
Under `C1CC[C@H]2CCCC[C@H]2C1` [cis-decalin] stands 57 °C; under `NC1CCC1` [cyclobutylamine], -4 °C; under `O=C1CCCCCC1` [cycloheptanone], 56 °C.
With `O=CC1CCCCC1` [cyclohexanecarboxaldehyde], the flash point amounted to 41 °C.
The compound `OC1CCCCC1` [cyclohexanol] had a flash point of 63 °C.
The compound `O=C1CCCCC1` [cyclohexanone] registered a flash point of 43 °C.
On to `C1CCC2OC2C1` (configuration not stated) [cyclohexeneoxide], for which the flash point worked out at 24 °C.
In the case of `C=C(C)C(=O)OC1CCCCC1` [cyclohexylmethacrylate], the flash point turned out to be 82 °C.
Under `CCC(=O)OC1CCCCC1` [cyclohexylpropanoate] stands 68 °C.
`C1CCCCCCCC1` [cyclononane]: the flash point is 43 °C.
`OC1CCCC1` [cyclopentanol] showed a flash point of 51 °C.
In turn, `COC1CCCC1` [cyclopentylmethylether] displayed a flash point of -1 °C.
`NC1CC1` [cyclopropylamine] yielded a flash point of -25 °C.
With `CCCCCCCCCC=O` [decanal], the flash point worked out at 83 °C.
`CCCCCCCCCC#N` [decanenitrile] registered a flash point of 92 °C.
`CCCCCCCCCCOC(C)=O` [decylacetate]: the flash point came out at 104 °C.
Turning to `CCC(C)SC(C)CC` (configuration not stated) [di-sec-butylsulfide], the flash point stood at 39 °C.
In turn, `CC(C)(C)SC(C)(C)C` [di-tert-butylsulfide] registered a flash point of 27 °C.
Regarding `C=CCSSCC=C` [diallyldisulfide], the flash point was 62 °C.
`C=CCOCC=C` [diallylether] returned a flash point of -7 °C.
On to `CCOCOCC` [diethoxymethane], for which the flash point is -5 °C.
Turning to `CCOC(=O)OCC` [diethylcarbonate], the flash point is 33 °C.
In turn, `CCSSCC` [diethyldisulfide] had a flash point of 39 °C.
Regarding `CCOCC` [diethylether], the flash point was -40 °C.
Regarding `CCSCC` [diethylsulfide], the flash point is -10 °C.
The compound `CC(C)CNCC(C)C` [diisobutylamine] registered a flash point of 30 °C.
`CC(C)CC(=O)CC(C)C` [diisobutylketone] gave a flash point of 49 °C.
Under `CC(C)COC(=O)c1ccccc1C(=O)OCC(C)C` [diisobutylphthalate] stands 185 °C; under `CC(C)CCSCCC(C)C` [diisopentylsulfide], 77 °C.
Under `CC(C)OC(C)C` [diisopropylether] stands -28 °C; under `CCCCCOCCCCC` [dipentylether], 57 °C.
On to `c1ccc(Cc2ccccc2)cc1` [diphenylmethane], for which the flash point amounted to 127 °C.
For the compound `CCCNCCC` [dipropylamine], the flash point was 7 °C.
Turning to `CCCOC(=O)OCCC` [dipropylcarbonate], the flash point turned out to be 55 °C.
In turn, `CCCSCCC` [dipropylsulfide] returned a flash point of 28 °C.
`C=COC=C` [divinylether]: the flash point was -47 °C.
With `CCCCCCCCCCCC=O` [dodecanal], the flash point is 102 °C.
In turn, `CCO` [ethanol] showed a flash point of 12 °C.
Compound `CCOC(=O)C(C)C` [ethyl2-methylpropanoate] came in with a flash point of 13 °C.
As to `CCOC(=O)CC(C)=O` [ethylacetoacetate], the flash point was 70 °C.
To `CCc1ccccc1` [ethylbenzene] belongs 21 °C; to `CCOC(=O)c1ccccc1` [ethylbenzoate], 84 °C.
The compound `CCCC(=O)OCC` [ethylbutanoate] had a flash point of 20 °C.
With `CCOC(=O)CCl` [ethylchloroacetate], the flash point is 53 °C.
As for `CCOC(=O)C=Cc1ccccc1` [ethylcinnamate], the flash point turned out to be 135 °C.
On to `CCOC=O` [ethylformate], for which the flash point was -19 °C.
The compound `C=C(C)C(=O)OCC` [ethylmethacrylate] gave a flash point of 19 °C.
Take `CCSC` [ethylmethylsulfide]: the flash point is -18 °C.
As for `CCCCC(=O)OCC` [ethylpentanoate], the flash point came out at 35 °C.
Turning to `CCCOCC` [ethylpropylether], the flash point was -25 °C.
`C=COCC` [ethylvinylether] had a flash point of -45 °C.
Take `Fc1ccccc1` [fluorobenzene]: the flash point was -15 °C.
`O=Cc1ccco1` [furfural] had a flash point of 58 °C.
In turn, `OCc1ccco1` [furfurylalcohol] yielded a flash point of 75 °C.

The values above are taken from a flash point compilation (Sun et al. 2020).
